Laboratory results reported in the kinase profiling compilation of Christmann-Franck et al. (2016).

Assays:
Assay in all cases: KINOMEscan competition binding
Conditions in all cases: compound 0.1 µM
[1] = test system: ABL1 (human), P00519 [F317I]
[2] = test system: ALK (human), Q9UM73 [C1156Y]
ANKK1 (human) = ANKK1 (human) (UniProt Q8NFD2)
BUB1 (human) = BUB1 (human) (UniProt O43683)
CDC42BPB (human) = CDC42BPB (human) (UniProt Q9Y5S2)
CDK14 (human) = CDK14 (human) (UniProt O94921)
CSK (human) = CSK (human) (UniProt P41240)
CSNK1G1 (human) = CSNK1G1 (human) (UniProt Q9HCP0)
CaMK1 (human) = CaMK1 (human) (UniProt Q14012)
[3] = test system: FLT3 (human), P36888 [D835H]
[4] = target: JAK1 JH2 pseudokinase (human) (UniProt P23458)
[5] = target: JAK2 JH1 catalytic (human) (UniProt O60674)
LATS2 (human) = LATS2 (human) (UniProt Q9NRM7)
MAP2K6 (human) = MAP2K6 (human) (UniProt P52564)
MAP4K1 (human) = MAP4K1 (human) (UniProt Q92918)
MAPK14 (human) = MAPK14 (human) (UniProt Q16539)
MAPK3 (human) = MAPK3 (human) (UniProt P27361)
MINK1 (human) = MINK1 (human) (UniProt Q8N4C8)
MKNK1 (human) = MKNK1 (human) (UniProt Q9BUB5)
NEK5 (human) = NEK5 (human) (UniProt Q6P3R8)
NUAK1 (human) = NUAK1 (human) (UniProt O60285)
PHKG1 (human) = PHKG1 (human) (UniProt Q16816)
PI4KB (human) = PI4KB (human) (UniProt Q9UBF8)
[6] = test system: PIK3CA (human), P42336 [E545A]
[7] = test system: PIK3CA (human), P42336 [H1047L]
[8] = test system: PIK3CA (human), P42336 [M1043I]
PIP5K1A (human) = PIP5K1A (human) (UniProt Q99755)
PKN3 (M.tuberculosis) = PKN3 (M.tuberculosis) (UniProt Q6P5Z2)
PLK2 (human) = PLK2 (human) (UniProt Q9NYY3)
PRKAA1 (human) = PRKAA1 (human) (UniProt Q13131)
PRKD3 (human) = PRKD3 (human) (UniProt O94806)
RPS6KA6 KD2 (human) = RPS6KA6 KD2 (human) (UniProt Q9UK32)
SIK2 (human) = SIK2 (human) (UniProt Q9H0K1)
SNRK (human) = SNRK (human) (UniProt Q9NRH2)
SRPK2 (human) = SRPK2 (human) (UniProt P78362)
STK17B (human) = STK17B (human) (UniProt O94768)
STK32B (human) = STK32B (human) (UniProt Q9NY57)
TBK1 (human) = TBK1 (human) (UniProt Q9UHD2)
TLK1 (human) = TLK1 (human) (UniProt Q9UKI8)
YES1 (human) = YES1 (human) (UniProt P07947)

CaMK1 (human), sequence (Q14012 whole entry, looked up): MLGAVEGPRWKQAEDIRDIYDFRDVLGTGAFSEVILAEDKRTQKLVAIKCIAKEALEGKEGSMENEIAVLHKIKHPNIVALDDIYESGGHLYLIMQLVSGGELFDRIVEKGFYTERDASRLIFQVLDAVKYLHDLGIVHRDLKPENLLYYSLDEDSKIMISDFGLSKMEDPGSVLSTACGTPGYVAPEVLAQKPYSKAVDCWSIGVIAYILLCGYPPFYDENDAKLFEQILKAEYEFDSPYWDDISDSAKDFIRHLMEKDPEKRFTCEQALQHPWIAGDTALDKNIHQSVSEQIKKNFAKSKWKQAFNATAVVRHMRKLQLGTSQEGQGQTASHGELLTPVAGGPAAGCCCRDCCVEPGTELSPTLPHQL
TBK1 (human), sequence (Q9UHD2 whole entry, looked up): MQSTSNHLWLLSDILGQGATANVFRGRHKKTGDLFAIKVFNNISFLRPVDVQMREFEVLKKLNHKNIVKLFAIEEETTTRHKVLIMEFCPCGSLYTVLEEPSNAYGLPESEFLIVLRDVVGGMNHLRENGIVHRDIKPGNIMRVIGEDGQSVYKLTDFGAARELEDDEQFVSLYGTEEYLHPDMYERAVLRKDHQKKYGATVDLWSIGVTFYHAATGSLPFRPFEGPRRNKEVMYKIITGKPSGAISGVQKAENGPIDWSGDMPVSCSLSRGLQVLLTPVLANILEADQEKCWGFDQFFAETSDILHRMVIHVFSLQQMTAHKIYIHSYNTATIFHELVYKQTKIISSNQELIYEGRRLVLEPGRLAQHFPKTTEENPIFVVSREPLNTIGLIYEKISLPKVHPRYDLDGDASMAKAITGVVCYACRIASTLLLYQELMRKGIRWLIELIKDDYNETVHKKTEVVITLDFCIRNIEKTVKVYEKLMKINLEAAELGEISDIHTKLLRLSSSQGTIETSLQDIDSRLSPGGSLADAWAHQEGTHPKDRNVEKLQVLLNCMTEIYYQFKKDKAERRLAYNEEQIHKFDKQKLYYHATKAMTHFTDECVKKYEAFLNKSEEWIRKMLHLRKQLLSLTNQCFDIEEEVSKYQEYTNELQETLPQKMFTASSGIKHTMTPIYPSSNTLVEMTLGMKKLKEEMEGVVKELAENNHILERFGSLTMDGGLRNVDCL
PRKD3 (human), sequence (O94806 whole entry, looked up): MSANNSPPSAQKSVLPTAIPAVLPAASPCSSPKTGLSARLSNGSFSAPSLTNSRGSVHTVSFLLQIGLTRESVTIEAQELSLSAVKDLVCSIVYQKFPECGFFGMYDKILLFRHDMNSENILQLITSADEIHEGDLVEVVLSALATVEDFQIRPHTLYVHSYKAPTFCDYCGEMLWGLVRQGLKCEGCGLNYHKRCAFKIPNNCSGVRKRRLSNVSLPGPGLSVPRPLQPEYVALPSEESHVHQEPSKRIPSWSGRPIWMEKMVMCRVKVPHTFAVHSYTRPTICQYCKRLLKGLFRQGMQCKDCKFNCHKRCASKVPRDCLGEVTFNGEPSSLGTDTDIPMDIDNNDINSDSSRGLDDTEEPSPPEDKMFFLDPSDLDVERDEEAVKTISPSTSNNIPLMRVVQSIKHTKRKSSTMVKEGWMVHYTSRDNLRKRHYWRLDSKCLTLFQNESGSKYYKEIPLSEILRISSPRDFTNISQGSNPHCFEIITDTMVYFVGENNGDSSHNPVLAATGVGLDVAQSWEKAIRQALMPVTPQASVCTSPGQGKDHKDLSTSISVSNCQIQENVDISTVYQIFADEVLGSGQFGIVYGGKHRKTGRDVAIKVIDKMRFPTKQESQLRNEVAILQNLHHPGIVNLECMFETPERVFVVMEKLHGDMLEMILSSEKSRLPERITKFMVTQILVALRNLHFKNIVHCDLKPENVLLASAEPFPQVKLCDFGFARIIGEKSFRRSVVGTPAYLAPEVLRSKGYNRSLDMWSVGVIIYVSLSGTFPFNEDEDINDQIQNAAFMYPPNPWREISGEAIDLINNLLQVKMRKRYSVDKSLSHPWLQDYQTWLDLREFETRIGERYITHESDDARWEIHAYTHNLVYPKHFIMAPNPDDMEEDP
SRPK2 (human), sequence (P78362 whole entry, looked up): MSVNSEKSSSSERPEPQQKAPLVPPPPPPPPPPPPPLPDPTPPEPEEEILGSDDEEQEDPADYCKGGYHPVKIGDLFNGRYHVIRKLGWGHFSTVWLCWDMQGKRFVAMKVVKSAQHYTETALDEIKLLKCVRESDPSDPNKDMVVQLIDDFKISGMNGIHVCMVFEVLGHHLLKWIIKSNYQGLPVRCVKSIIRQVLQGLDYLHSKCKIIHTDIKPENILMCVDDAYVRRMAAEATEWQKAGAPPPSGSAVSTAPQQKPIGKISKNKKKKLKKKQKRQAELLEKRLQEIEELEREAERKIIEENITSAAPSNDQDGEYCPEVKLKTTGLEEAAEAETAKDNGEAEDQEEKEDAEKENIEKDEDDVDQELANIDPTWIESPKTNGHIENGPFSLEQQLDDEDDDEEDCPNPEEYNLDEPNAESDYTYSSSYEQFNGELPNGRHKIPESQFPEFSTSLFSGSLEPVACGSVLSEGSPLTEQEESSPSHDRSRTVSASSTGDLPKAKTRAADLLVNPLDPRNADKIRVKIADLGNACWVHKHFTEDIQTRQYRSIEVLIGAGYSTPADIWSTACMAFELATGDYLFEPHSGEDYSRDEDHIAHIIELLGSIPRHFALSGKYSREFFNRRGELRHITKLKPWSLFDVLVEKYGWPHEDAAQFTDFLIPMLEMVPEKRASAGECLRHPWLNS
JAK1 JH2 pseudokinase (human), sequence (P23458 whole entry, looked up): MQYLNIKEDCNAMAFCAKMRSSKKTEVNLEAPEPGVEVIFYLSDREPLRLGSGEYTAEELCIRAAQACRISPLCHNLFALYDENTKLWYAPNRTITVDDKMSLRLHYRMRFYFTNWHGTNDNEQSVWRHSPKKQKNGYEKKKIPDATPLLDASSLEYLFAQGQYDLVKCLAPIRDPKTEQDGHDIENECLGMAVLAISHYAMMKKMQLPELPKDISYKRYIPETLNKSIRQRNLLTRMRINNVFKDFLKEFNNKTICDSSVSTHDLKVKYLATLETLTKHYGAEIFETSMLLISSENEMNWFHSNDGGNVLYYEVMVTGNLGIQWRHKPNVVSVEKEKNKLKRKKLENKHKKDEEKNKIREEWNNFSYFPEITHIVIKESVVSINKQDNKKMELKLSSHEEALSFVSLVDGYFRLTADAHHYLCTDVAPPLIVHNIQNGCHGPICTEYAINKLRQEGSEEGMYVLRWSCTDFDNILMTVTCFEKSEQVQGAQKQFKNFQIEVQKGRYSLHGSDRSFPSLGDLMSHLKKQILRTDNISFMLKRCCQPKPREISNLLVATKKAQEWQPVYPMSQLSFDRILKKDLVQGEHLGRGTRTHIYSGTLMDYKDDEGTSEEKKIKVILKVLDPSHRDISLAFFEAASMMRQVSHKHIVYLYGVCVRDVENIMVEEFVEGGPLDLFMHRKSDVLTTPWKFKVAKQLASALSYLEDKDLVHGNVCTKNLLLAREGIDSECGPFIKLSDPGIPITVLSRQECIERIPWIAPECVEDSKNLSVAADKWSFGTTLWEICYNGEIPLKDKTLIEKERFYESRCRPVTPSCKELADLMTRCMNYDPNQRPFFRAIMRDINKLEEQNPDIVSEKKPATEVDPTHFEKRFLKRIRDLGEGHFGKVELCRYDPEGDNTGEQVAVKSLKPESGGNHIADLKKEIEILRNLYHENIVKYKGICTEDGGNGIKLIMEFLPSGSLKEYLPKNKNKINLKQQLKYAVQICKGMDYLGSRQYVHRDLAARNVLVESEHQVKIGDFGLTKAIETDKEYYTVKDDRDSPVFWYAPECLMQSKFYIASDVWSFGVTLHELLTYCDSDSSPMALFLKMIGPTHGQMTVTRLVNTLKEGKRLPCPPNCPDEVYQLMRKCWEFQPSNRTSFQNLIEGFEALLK
PKN3 (M.tuberculosis), sequence (Q6P5Z2 whole entry, looked up): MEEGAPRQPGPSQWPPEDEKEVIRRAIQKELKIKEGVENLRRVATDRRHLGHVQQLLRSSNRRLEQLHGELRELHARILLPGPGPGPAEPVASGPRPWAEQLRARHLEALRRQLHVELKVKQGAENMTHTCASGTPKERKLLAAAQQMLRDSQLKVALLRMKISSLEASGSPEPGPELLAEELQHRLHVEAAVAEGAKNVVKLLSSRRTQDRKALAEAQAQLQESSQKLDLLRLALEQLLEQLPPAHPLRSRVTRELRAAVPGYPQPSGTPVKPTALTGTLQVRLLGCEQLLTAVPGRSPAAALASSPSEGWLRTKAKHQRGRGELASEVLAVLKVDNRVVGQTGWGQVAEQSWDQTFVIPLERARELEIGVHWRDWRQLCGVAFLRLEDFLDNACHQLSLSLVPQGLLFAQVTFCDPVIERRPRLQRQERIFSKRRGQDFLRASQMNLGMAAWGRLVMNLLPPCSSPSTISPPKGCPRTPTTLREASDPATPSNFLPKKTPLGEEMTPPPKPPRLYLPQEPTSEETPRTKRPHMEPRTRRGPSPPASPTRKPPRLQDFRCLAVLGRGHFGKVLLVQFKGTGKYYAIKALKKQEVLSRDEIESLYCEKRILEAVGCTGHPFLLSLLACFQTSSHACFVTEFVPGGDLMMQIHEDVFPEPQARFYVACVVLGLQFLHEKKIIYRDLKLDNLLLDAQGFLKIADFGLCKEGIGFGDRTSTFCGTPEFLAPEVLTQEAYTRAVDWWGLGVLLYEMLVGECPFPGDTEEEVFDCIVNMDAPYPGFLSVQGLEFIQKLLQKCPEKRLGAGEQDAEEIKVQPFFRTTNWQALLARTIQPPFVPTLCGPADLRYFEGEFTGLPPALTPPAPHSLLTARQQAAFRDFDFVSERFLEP
MAP2K6 (human), sequence (P52564 whole entry, looked up): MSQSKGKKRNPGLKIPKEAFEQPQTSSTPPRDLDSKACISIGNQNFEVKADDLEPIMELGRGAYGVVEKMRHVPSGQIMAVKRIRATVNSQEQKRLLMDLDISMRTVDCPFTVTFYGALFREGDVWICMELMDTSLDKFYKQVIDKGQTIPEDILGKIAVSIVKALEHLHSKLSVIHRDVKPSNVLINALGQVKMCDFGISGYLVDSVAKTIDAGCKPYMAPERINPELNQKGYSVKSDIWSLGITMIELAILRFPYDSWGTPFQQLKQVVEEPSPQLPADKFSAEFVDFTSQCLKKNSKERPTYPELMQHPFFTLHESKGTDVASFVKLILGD

Compound CCc1ccc(C(=O)Nc2cc(CN3CCN(C)CC3)cc(C(F)(F)F)c2)cc1C#Cc1cnc2ccnn2c1 has a kinase still bound, per cent of control [1] of 83%, a kinase still bound, per cent of control [2] of 97% and a kinase still bound, per cent of control (ANKK1 (human)) of 100%. It also gave a kinase still bound, per cent of control (BUB1 (human)) of 100%, a kinase still bound, per cent of control (CDC42BPB (human)) of 78% and a kinase still bound, per cent of control (CDK14 (human)) of 81%. It also gave a kinase still bound, per cent of control (CSK (human)) of 92%, a kinase still bound, per cent of control (CSNK1G1 (human)) of 85% and a kinase still bound, per cent of control (CaMK1 (human)) of 75%. It also gave a kinase still bound, per cent of control [3] of 83%, a kinase still bound, per cent of control [4] of 100% and a kinase still bound, per cent of control [5] of 100%. It also gave a kinase still bound, per cent of control (LATS2 (human)) of 100%, a kinase still bound, per cent of control (MAP2K6 (human)) of 100% and a kinase still bound, per cent of control (MAP4K1 (human)) of 100%. For the same compound, the kinase still bound, per cent of control (MAPK14 (human)) was 85%, the kinase still bound, per cent of control (MAPK3 (human)) was 100% and the kinase still bound, per cent of control (MINK1 (human)) was 100%. For the same compound, the kinase still bound, per cent of control (MKNK1 (human)) was 91%, the kinase still bound, per cent of control (NEK5 (human)) was 100% and the kinase still bound, per cent of control (NUAK1 (human)) was 100%. It also gave a kinase still bound, per cent of control (PHKG1 (human)) of 85%, a kinase still bound, per cent of control (PI4KB (human)) of 100% and a kinase still bound, per cent of control [6] of 100%. The kinase still bound, per cent of control [7] was 100%, the kinase still bound, per cent of control [8] was 100% and the kinase still bound, per cent of control (PIP5K1A (human)) was 100%. The kinase still bound, per cent of control (PKN3 (M.tuberculosis)) was 78%, the kinase still bound, per cent of control (PLK2 (human)) was 100% and the kinase still bound, per cent of control (PRKAA1 (human)) was 83%. It also gave a kinase still bound, per cent of control (PRKD3 (human)) of 97%, a kinase still bound, per cent of control (RPS6KA6 KD2 (human)) of 100% and a kinase still bound, per cent of control (SIK2 (human)) of 100%. The kinase still bound, per cent of control (SNRK (human)) was 75%, the kinase still bound, per cent of control (SRPK2 (human)) was 75% and the kinase still bound, per cent of control (STK17B (human)) was 75%. The kinase still bound, per cent of control (STK32B (human)) was 100%, the kinase still bound, per cent of control (TBK1 (human)) was 100% and the kinase still bound, per cent of control (TLK1 (human)) was 100%. It also gave a kinase still bound, per cent of control (YES1 (human)) of 70%.
